Here are results for seven compounds from ChEMBL document CHEMBL2074306, “Transport of bile acids in multidrug-resistance-protein 3-overexpressing cells co-transfected with the ileal Na+-dependent bile-acid transporter” (Biochem J, 2003).

Common to all, as to format: functional, cell membranes
Common to all, as to set-up: scale not given: the % may be the effect or the level left

The target in experiment [1] is Multidrug resistance associated protein (Homo sapiens) (UniProt Q96QA9). Description: TP_TRANSPORTER: inhibition of Etoposide glucuronide uptake (Etoposide glucuronide: 0.094 uM, MK571: 20 uM) by MK-571 at a concentration of 20uM in membrane vesicle from MRP3-expressing Sf9 cells.
For experiment [2] the target is unchanged. Description: TP_TRANSPORTER: inhibition of Etoposide glucuronide uptake (Etoposide glucuronide: 0.094 uM, MK-571: 20.0 uM) in membrane vesicles from MRP3-expressing Sf9 cells. The conditions noted are these: Membrane vesicle.
The target is the same in experiment [3]. As to the kind of experiment: TP_TRANSPORTER: inhibition of Etoposide glucuronide uptake (Etoposide glucuronide: 0.094 uM, Lithocholic acid-sulfate: 20 uM) by Lithocholate-3-sulfate at a concentration of 20uM in membrane vesicle from MRP3-expressing Sf9 cells.
For experiment [4] the target is unchanged. As to the kind of experiment: TP_TRANSPORTER: inhibition of Etoposide glucuronide uptake (Etoposide glucuronide: 0.094 uM, LC-S: 20.0 uM) in membrane vesicles from MRP3-expressing Sf9 cells. Conditions: Membrane vesicle.
Experiment [5] has the same target. Description: TP_TRANSPORTER: inhibition of Etoposide glucuronide uptake (Etoposide glucuronide: 0.094 uM, GC: 500 uM) by Glycocholate at a concentration of 500uM in membrane vesicle from MRP3-expressing Sf9 cells.
For experiment [6] the target is unchanged. Description: TP_TRANSPORTER: inhibition of Etoposide glucuronide uptake (Etoposide glucuronide: 0.094 uM, GC: 500.0 uM) in membrane vesicles from MRP3-expressing Sf9 cells. Conditions: Membrane vesicle.
Experiment [7] has the same target. Description: TP_TRANSPORTER: inhibition of Etoposide glucuronide uptake (Etoposide glucuronide: 0.094 uM, TDCA: 500 uM) by Taurodeoxycholate at a concentration of 500uM in membrane vesicle from MRP3-expressing Sf9 cells.
For experiment [8] the target is unchanged. As to the kind of experiment: TP_TRANSPORTER: inhibition of Etoposide glucuronide uptake (Etoposide glucuronide: 0.094 uM, TDCA: 500.0 uM) in membrane vesicles from MRP3-expressing Sf9 cells. The conditions noted are these: Membrane vesicle.
Experiment [9] shares this target. As to the kind of experiment: TP_TRANSPORTER: inhibition of Etoposide glucuronide uptake (Etoposide glucuronide: 0.094 uM, TLCAS: 50 uM) by Taurolithocholate-3-sulfate at a concentration of 50uM in membrane vesicle from MRP3-expressing Sf9 cells.
Experiment [10] shares this target. Description: TP_TRANSPORTER: inhibition of Etoposide glucuronide uptake (Etoposide glucuronide: 0.094 uM, TLC-S: 50.0 uM) in membrane vesicles from MRP3-expressing Sf9 cells. The conditions noted are these: Membrane vesicle.
For experiment [11] the target is unchanged. As to the kind of experiment: TP_TRANSPORTER: inhibition of Etoposide glucuronide uptake (Etoposide glucuronide: 0.094 uM, TCDC: 500 uM) by Taurochenodeoxycholate at a concentration of 500uM in membrane vesicle from MRP3-expressing Sf9 cells.
The target is the same in experiment [12]. As to the kind of experiment: TP_TRANSPORTER: inhibition of Etoposide glucuronide uptake (Etoposide glucuronide: 0.094 uM, TCDC: 500.0 uM) in membrane vesicles from MRP3-expressing Sf9 cells. Conditions: Membrane vesicle.
The target is the same in experiment [13]. As to the kind of experiment: TP_TRANSPORTER: inhibition of Etoposide glucuronide uptake (Etoposide glucuronide: 0.094 uM, […] uM) by Glycolithocholate-3-sulfate at a concentration of 20uM in membrane vesicle from MRP3-expressing Sf9 cells.
Experiment [14] shares this target. Description: TP_TRANSPORTER: inhibition of Etoposide glucuronide uptake (Etoposide glucuronide: 0.094 uM, GLC-S: 20.0 uM) in membrane vesicles from MRP3-expressing Sf9 cells. Conditions: Membrane vesicle.

Multidrug resistance associated protein (Homo sapiens), sequence (Q96QA9 as listed by the source): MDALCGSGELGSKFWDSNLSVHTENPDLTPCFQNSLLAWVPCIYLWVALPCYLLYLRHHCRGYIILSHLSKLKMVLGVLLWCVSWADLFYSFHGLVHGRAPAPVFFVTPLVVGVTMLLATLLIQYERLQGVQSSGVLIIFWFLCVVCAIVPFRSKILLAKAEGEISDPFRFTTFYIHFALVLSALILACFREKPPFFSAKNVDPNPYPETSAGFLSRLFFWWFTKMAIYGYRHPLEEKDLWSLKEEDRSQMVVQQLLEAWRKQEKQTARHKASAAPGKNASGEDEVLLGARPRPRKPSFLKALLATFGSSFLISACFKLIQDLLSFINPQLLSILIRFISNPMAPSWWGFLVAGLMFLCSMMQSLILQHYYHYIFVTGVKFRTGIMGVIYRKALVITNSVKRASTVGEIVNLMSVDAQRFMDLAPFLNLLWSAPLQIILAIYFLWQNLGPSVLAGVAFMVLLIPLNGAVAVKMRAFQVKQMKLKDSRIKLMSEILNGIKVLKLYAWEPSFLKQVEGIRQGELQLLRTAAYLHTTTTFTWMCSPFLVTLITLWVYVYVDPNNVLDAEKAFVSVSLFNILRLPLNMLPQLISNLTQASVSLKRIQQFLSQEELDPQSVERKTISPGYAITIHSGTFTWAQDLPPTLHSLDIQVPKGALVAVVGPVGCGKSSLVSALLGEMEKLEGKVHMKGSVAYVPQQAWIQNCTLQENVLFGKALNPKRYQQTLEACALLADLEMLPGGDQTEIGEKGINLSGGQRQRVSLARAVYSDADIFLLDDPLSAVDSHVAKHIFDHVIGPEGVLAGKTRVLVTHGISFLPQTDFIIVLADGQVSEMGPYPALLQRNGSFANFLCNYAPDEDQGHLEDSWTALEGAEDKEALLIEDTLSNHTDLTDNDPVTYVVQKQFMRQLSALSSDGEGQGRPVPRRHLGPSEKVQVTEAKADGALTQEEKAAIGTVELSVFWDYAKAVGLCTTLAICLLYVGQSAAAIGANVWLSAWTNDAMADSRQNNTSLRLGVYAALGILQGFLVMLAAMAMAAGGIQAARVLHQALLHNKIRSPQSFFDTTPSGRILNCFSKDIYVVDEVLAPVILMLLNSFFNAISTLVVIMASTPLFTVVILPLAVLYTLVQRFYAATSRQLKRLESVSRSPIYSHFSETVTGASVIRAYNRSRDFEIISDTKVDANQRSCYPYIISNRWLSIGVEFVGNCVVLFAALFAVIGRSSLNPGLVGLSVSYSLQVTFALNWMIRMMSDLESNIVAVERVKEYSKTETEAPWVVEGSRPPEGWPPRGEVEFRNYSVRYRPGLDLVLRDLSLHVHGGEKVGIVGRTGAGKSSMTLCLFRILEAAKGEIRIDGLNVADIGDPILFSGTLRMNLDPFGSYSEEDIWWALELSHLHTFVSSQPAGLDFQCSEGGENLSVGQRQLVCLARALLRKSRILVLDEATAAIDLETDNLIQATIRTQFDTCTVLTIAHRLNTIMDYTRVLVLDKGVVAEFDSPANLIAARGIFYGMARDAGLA

For the compound `CN(C)C(=O)CCSC(SCCC(=O)O)c1cccc(/C=C/c2ccc3ccc(Cl)cc3n2)c1` (centres undefined), the Activity in [1] and in experiment [2] was 40% in each case.
As to `C[C@H](CCC(=O)O)[C@H]1CC[C@H]2[C@@H]3CC[C@@H]4C[C@H](OS(=O)(=O)O)CC[C@]4(C)[C@H]3CC[C@]12C`, the Activity in experiment [3] and in experiment [4] was 24% throughout.
Take `C[C@H](CCC(=O)NCC(=O)O)[C@H]1CC[C@H]2[C@@H]3[C@H](O)C[C@@H]4C[C@H](O)CC[C@]4(C)[C@H]3C[C@H](O)[C@]12C`: the Activity in experiment [5] and in [6] was 30% throughout.
`C[C@H](CCC(=O)NCCS(=O)(=O)O)[C@H]1CC[C@H]2[C@@H]3CC[C@@H]4C[C@H](O)CC[C@]4(C)[C@H]3C[C@H](O)[C@]12C`: the Activity in experiment [7] and in [8] was 9% in each case.
For `C[C@H](CCC(=O)NCCS(=O)(=O)O)C1CC[C@H]2[C@@H]3CC[C@@H]4C[C@H](OS(=O)(=O)O)CC[C@]4(C)[C@H]3CC[C@]12C` (some centres undefined), the Activity in experiment [9] and in [10] was 8% each time.
Consider `C[C@H](CCC(=O)NCCS(=O)(=O)O)[C@H]1CC[C@H]2[C@@H]3[C@H](O)C[C@@H]4C[C@H](O)CC[C@]4(C)[C@H]3CC[C@]12C`, for which the Activity in experiment [11] and in experiment [12] was 6% throughout.
Take `C[C@H](CCC(=O)NCC(=O)O)[C@H]1CC[C@H]2[C@@H]3CC[C@@H]4C[C@H](OS(=O)(=O)O)CC[C@]4(C)[C@H]3CC[C@]12C`: the Activity in experiment [13] and in [14] was 29% each time.
